# Results taken from article PMC11943723, “Synthesis and Biological Activity of Glycosyl Thiazolyl Disulfides Based on Thiacarpine, an Analogue of the Cytotoxic Alkaloid Polycarpine from the Ascidian Polycarpa aurata” (Marine Drugs, 2025).
# Where two headings read alike, the source gives them in different places.
# Assays:
# HeLa (cervical cancer) = experiment: MTT cell viability assay, HeLa; format: cell-based, human; conditions: 24 h incubation, read-out: Cytotoxicity EC50, HeLa
# Excerpt: (§1) Human erythrocytes were purchased from the blood transfusion station Vladivostok. Human breast cancer cell lines MCF-7^HTB−22, and MDA-MB-231^CRM-HTB−26, liver hepatocellular carcinoma Hep G2^HB−8065, prostate adenocarcinoma PC-3^CRL−1435, cervical adenocarcinoma HeLa^CRM-CCL−2, and normal bronchial epithelial cells BEAS-2B ^CRL−3588 were received from ATCC (Manassas, VA, USA).
# (§2) DMEM medium (Biolot, Russia) with 1% penicillin/streptomycin and 10% fetal bovine serum (FBS) (Biolot, Russia) was used for cultivation of Hep G2, PC-3, HeLa, and Beas-2b. MEM medium (Biolot, Russia) with 1% penicillin/streptomycin sulfate (Biolot, Russia) and FBS (Biolot, Russia) to a final concentration of 10% for MCF-7 and MDA-MB-231 cells.
# (§3) The effect of the studied compounds on the viability of human cancer and normal cells was determined using the MTT (3-[4,5-dimethylthiazol-2-yl]-2,5 diphenyl tetrazolium bromide) assay. Briefly, 6 × 10^3 cells per well were seeded into 96-well plates and incubated for 24 h for adhesion, followed by incubation for 24 h with different concentrations of the substances. After incubation, the medium containing the test substances was replaced with 100 µL of fresh medium. Then, 10 μL of MTT (Sigma-Aldrich, Madison, WI, USA) reagent (5 mg/mL MTT in PBS) was added into the cells and the plates for additional 4 h. Thereafter, 100 µL of SDS-HCl solution (1 g SDS/10 mL dH2O/17 µL 6N HCl) was added to each well and incubated for 18 h. The absorbance of the converted formazan dye was measured using a Multiskan FC microplate photometer (Thermo Scientific, Waltham, MA, USA) at a wavelength of 570 nm. All experiments were performed in triplicate. Cytotoxic activity was expressed as a percentage of the cell viability.
# [1] = tested on: Hep G2 (hepatocellular carcinoma); experiment: MTT cell viability assay, Hep G2; format: cell-based; conditions: Homo sapiens, HepG2, 24 h incubation, read-out: Cytotoxicity EC50, Hep G2
# Excerpt: as §1, §2, §3
# [2] = tested on: MDA-MB-231 (triple-negative breast cancer); experiment: MTT cell viability assay, MDA-MB-231; format: cell-based, human; conditions: 24 h incubation, read-out: Cytotoxicity EC50, MDA-MB-231 (TNBC)
# Excerpt: as §1, §2, §3
# [3] = MTT cell viability assay, BEAS-2B normal cells; format: cell-based; conditions: human, BEAS-2B normal bronchial epithelial cells, 24 h incubation, read-out: Cytotoxicity EC50, BEAS 2B
# Excerpt: as §1, §2, §3
# [4] = tested on: Candida albicans (KMM 455); experiment: Antimicrobial activity, inhibition of microbial growth (optical density); format: cell-based; conditions: Candida albicans, KMM455; 18 h, OD 620 nm; read-out: Inhibition of Microbial Growth MIC50, C. albicans
# Method: (§4) The antimicrobial activity of the compounds was determined against Gram-positive bacteria Staphylococcus aureus (ATCC 21027), Gram-negative bacteria Escherichia coli (VKPM B-7935), and yeast-like fungi Candida albicans (KMM 455) (all test strains were obtained from the Collection of Marine Microorganisms KMM PIBOC FEB RAS) in liquid nutrient media. Test cultures of S. aureus, E. coli, and C. albicans were grown in Petri dishes on a solid nutrient medium (Mueller–Hinton broth with the addition of agar—16.0 g/L) at 37 °C for 24 h. The antimicrobial activity of the compounds was determined by the change in optical density and expressed as the percentage of bacterial inhibition at different concentrations of substances added to the well of the microorganism suspension, compared to the control. The compounds were dissolved in dimethyl sulfoxide (DMSO) at a concentration of 10 mM and stored at −20 °C. Before the experiment, the solution of substances in DMSO was diluted with PBS at a concentration of 0.5–100.0 µM and added to the wells so that the concentration of DMSO in the culture medium was less than 1%. Antimicrobial activity was determined in 96-well microplates in a liquid Mueller–Hinton nutrient medium. For S. aureus, E. coli, and C. albicans, a bacterial suspension of 10^6 CFU in 1 mL of the media was used, 90 μL was added to each well of the microplates and then incubated in a thermostatted shaker at 37 °C for 18 h. Inhibition of microorganism growth was assessed by measuring the optical density at 620 nm using a microplate reader (Thermo Fisher Scientific, Waltham, MA, USA) after preliminary shaking of the plates for 10 min. All experiments were performed in triplicate. Gentamicin (S. aureus and E. coli) and nitrofungin (C. albicans) were used as positive controls, and 1% DMSO in PBS was used as a negative control.
# [5] = tested on: Escherichia coli (VKPM B-7935); experiment: as above; format: cell-based; conditions: Escherichia coli; 18 h, OD 620 nm; read-out: Inhibition of Microbial Growth MIC50, E. coli
# Method: as §4
# [6] = tested on: Staphylococcus aureus (ATCC 21027); experiment: as above; format: cell-based; conditions: Staphylococcus aureus, ATCC21027; 18 h, OD 620 nm; read-out: Inhibition of Microbial Growth MIC50, S. aureus
# Method: as §4
# LLC = conditions: injected intraperitoneally; cited from earlier work
# melanoma B-16 = conditions: injected intraperitoneally; cited from earlier work
# Human erythrocytes = experiment: Hemolytic activity (destruction of erythrocyte membranes); format: cell-based
# Excerpt: as §1
# HeLa cells [7] = experiment: Colony formation (clonogenic) assay; format: cell-based; conditions: Homo sapiens, 336 h, 10 µM, 14 days
# Method: The effect of the test compounds on HeLa cell proliferation was analyzed using a clonogenic assay. Briefly, HeLa cells were cultured in 6-well plates at a density of 1 × 10^2 cells per well, and compounds were added at concentrations of 5 or 10 μM. Untreated culture medium was used as a control. […] Before fixation and staining, the medium was removed and the cells were washed twice with PBS. The colonies were then fixed with methanol for 25 min and stained with 0.5% crystal violet for 25 min at room temperature. The plates were then washed with water and air-dried.
# [8] = tested on: Escherichia coli (VKPM B-7935); experiment: Inhibition of biofilm formation (MTT); format: cell-based; conditions: 24 h
# Method: (§5) Biofilm formation was performed according to the method described by Walencka et al., with minor modifications. The compounds were dissolved in dimethyl sulfoxide (DMSO) at a concentration of 10 mM and stored at −20 °C. Before the experiment, the solution of substances in DMSO was diluted with PBS at a concentration of 0.5–100.0 µM and added to the wells so that the concentration of DMSO in the culture medium was less than 1%. Biofilm formation was assessed in 96-well microplates in a liquid Mueller–Hinton nutrient medium. For S. aureus, E. coli, and C. albicans, a bacterial suspension of 10^6 CFU in 1 mL of medium was used, 90 μL was added to each well of the microplates and then incubated in a thermostatted shaker at 37 °C for 24 h. After incubation, the suspension of planktonic microorganisms was removed from the plate and washed with PBS. Next, 100 μL of PBS and 10 μL of MTT (3-(4,5-dimethylthiazol-2-yl)-2,5-diphenyltetrazolium bromide, MTT reagent, Sigma) stock solution (5 mg/mL) were added to the wells and incubated for 3 h at 37 °C. After incubation, all the solution was removed from the wells, 100 μL of DMSO was added, and the plate was shaken for 10 min until all formazan crystals had dissolved. The absorption was measured using a plate reader (Thermo Fisher Scientific, Waltham, MA, USA) at a wavelength of 570 nm. The activity of the substances was assessed by the change in optical density compared with that of the control. All experiments were performed in triplicate. Gentamicin (S. aureus and E. coli) and nitrofungin (C. albicans) were used as positive controls, and 1% DMSO in PBS was used as a negative control.
# [9] = tested on: Staphylococcus aureus (ATCC 21027); experiment: Inhibition of biofilm formation (MTT); format: cell-based; conditions: 24 h
# Method: as §5
# HeLa cells [10] = experiment: Wound scratch migration assay; format: cell-based; conditions: Homo sapiens, 24 h, read-out: Migration inhibition effect
# Method: To analyze the effect of the tested compounds on the migration of HeLa tumor cells, special migration inserts (Culture-insert 2 Well 24, ibiTreat, Martinsried, Germany) were used, which left a gap of 500 ± 50 μm (according to the manufacturer’s data) between the cells attached to the plate. HeLa cells at a concentration of 5 × 10^5 were added to each well of the migration insert for 24 h, the insert was removed, and the cells were washed twice with PBS to remove cell debris and floating cells and loaded with the fluorescent probe CFDA-SE (Lumiprobe, Moscow, Russia) at a concentration of 10 µM for 5 min. The cells were treated with different concentrations of the studied compounds for 0 and 24 h. Cells treated with culture medium alone were used as vehicle controls. Cell migration in the wound area was observed under a fluorescence microscope (MIB-2-FL, LOMO, St. Petersburg, Russia) with a 10× objective.
# [11] = tested on: Candida albicans (KMM 455); experiment: Inhibition of biofilm formation (MTT); format: cell-based; conditions: 24 h
# Method: as §5
# [12] = in vivo experiments; cited from earlier work
Compound,MIC50 [4] [µM],MIC50 [5] [µM],MIC50 [6] [µM],"Inhibition of Biofilm Formation MIC50, E. coli [8] [µM]","Inhibition of Biofilm Formation MIC50, S. aureus [9] [µM]","Inhibition of Biofilm Formation MIC50, C. albicans [11] [µM]","EC50 (HeLa (cervical cancer); Homo sapiens, HeLa, 24 h) [µM]",EC50 [1] [µM],"EC50 ([2]; Homo sapiens, MDA-MB-231, 24 h) [µM]",EC50 at 24 h [3] [µM],Inhibition of development of solid tumor LLC (LLC),Inhibition of development of solid tumor melanoma B-16 (melanoma B-16),"Hemolytic activity, erythrocytes (Human erythrocytes) [µM]",inhibition at 10 µM (HeLa cells [7]) [%],EC50 (HeLa (cervical cancer)) [µM],EC50 [2] [µM],inhibition at 10 µM (HeLa cells [10]) [%],Acute toxicity in vivo [12]
COc1ccc(-c2nc(N)sc2SSc2sc(N)nc2-c2ccc(OC)cc2)cc1 [Compound 1a],38.2 ± 3.2,> 50,10.3 ± 1.1,–,–,–,> 25,> 25,21.4,> 25,effectively inhibited,effectively inhibited,–,–,–,–,–,–
COc1ccc(-c2nc(N)n(C)c2SSc2c(-c3ccc(OC)cc3)nc(N)n2C)cc1 [polycarpine],–,–,–,–,–,–,–,–,–,–,–,–,–,–,–,–,–,acute toxicity

# Further molecules by falling MIC50 [4], results first:
MIC50 [4] [µM],MIC50 [5] [µM],MIC50 [6] [µM],"Inhibition of Biofilm Formation MIC50, E. coli [8] [µM]","Inhibition of Biofilm Formation MIC50, S. aureus [9] [µM]","Inhibition of Biofilm Formation MIC50, C. albicans [11] [µM]",Compound,"EC50 (HeLa (cervical cancer); Homo sapiens, HeLa, 24 h) [µM]",EC50 [1] [µM],"EC50 ([2]; Homo sapiens, MDA-MB-231, 24 h) [µM]",EC50 at 24 h [3] [µM],Inhibition of development of solid tumor LLC (LLC),Inhibition of development of solid tumor melanoma B-16 (melanoma B-16),"Hemolytic activity, erythrocytes (Human erythrocytes) [µM]",inhibition at 10 µM (HeLa cells [7]) [%],EC50 (HeLa (cervical cancer)) [µM],EC50 [2] [µM],inhibition at 10 µM (HeLa cells [10]) [%],Acute toxicity in vivo [12]
17.7 ± 0.3,> 50,> 50,–,–,–,"CC(=O)OC[C@H]1O[C@@H](SSc2sc(N)nc2-c2ccc(C)cc2)[C@H](OC(C)=O)[C@@H](OC(C)=O)[C@@H]1OC(C)=O [Compound 4e, 5-[(2,3,4,6-Tetra-O-acetyl-β-D-glucopyranosyl)disulfanyl]-2-amino-4-(p-tolyl)thiazole]",18.5,> 25,15,> 25,–,–,–,–,18.5,15,~43,–
7.1 ± 0.7,6.9 ± 0.5,2.3 ± 0.3,8.04,7.94,–,"CC(=O)OC[C@H]1O[C@@H](SSc2sc(N)nc2-c2ccc(Br)cc2)[C@H](OC(C)=O)[C@@H](OC(C)=O)[C@@H]1OC(C)=O [Compound 4c, 5-[(2,3,4,6-Tetra-O-acetyl-β-D-glucopyranosyl)disulfanyl]-2-amino-4-(4-bromophenyl)thiazole]",19.4,24.3,21.7,15.5,–,–,> 25,76,–,–,–,–
4.3 ± 0.5,5.8 ± 0.4,2.4 ± 0.2,–,6.32,7.11,"CC(=O)O[C@@H]1[C@@H](OC(C)=O)[C@H](SSc2sc(N)nc2-c2ccc(Br)cc2)OC[C@H]1OC(C)=O [Compound 4h, 5-[(2,3,4-Tri-O-acetyl-β-D-xylopyranosyl)disulfanyl]-2-amino-4-(4-bromophenyl)thiazole]",21.3,24.6,21.1,19.9,–,–,> 25,–,–,–,~43,–
